From US5753650A, “Inhibitors of farnesyl-protein transferase” (Merck & Co., Inc., priority 1996, dated 1998)

Target: Farnesyl-protein transferase (FTase)
Assay: In vitro inhibition of Ras farnesyl transferase (farnesylation of Ras-CVLS with [3H]FPP)
Assay type: biochemical
Conditions: Ras-CVLS 3.5 μM, [3H]FPP 0.25 μM; partially purified bovine or recombinant human enzyme; read-out: IC50 (concentration of the test compound which gives 50% inhibition of FTase)
Description: Farnesyl-protein transferase (FTase) from bovine brain was chromatographed on DEAE-Sephacel (Pharmacia, 0-0.8 M NaCl gradient elution), N-octyl agarose (Sigma, 0-0.6 M NaCl gradient elution), and a mono Q HPLC column (Pharmacia, 0-0.3 M NaCl gradient). Ras-CVLS at 3.5 μM, 0.25 μM [^3 H]FPP, and the indicated compounds were incubated with either a partially purified bovine enzyme preparation or a recombinant human enzyme preparation. The recombinant human enzyme was prepared as described in Omer, C. A., Kral, A. M., Diehl, R. E., Prendergast, G. C., Powers, S., Allen, C. M., Gibbs, J. B. and Kohl, N. E. (1993) Biochemistry 32:5167-5176. The FTase data presented below in Table 1 reflects the ability of the test compound to inhibit RAS farnesylation in vitro, as described in Pompliano, et al. Biochemistry 31:3800 (1992).
*(IC50 is the concentration of the test compound which gives 50%
inhibition of FTase under the described assay conditions)

| Compound | IC50 |
| --- | --- |
| N[C@@H](CS)C(=O)NC1N=C(c2ccccc2)c2ccccc2NC1=O (single isomer, unassigned) [2 - slower eluting isomer] | 42000 nM |
| CN(C(=O)[C@@H](N)CS)C1N=C(c2ccccc2)c2ccccc2NC1=O (single isomer, unassigned) [1 - faster eluting isomer] | 2600 nM |
| 3-[N-2(S)-amino-3-mercaptopropionyl-N-methyl]amino-2,3-dihydro-2-oxo-5-phenyl-1H-1,4-benzodiazepine [1 - slower eluting isomer] | 110 nM |
| N[C@@H](CS)C(=O)NC1N=C(c2ccccc2)c2ccccc2NC1=O (single isomer, unassigned) [2 - faster eluting isomer] | 1600 nM |
